pIC50: −log10 of the molar value.
Molecular target: intact V-ATPase (purified yeast V-ATPase) (Saccharomyces cerevisiae, UniProt P23968+P25515+P32563+P32842)
Test: enzyme-coupled ATPase assay
Format: biochemical

CO/C1=C\C(C)=C\[C@@H](C)[C@@H](O)[C@@H](C)C/C(C)=C/C=C/[C@H](OC)[C@@H]([C@@H](C)[C@@H](O)[C@H](C)[C@@]2(O)C[C@@H](O)[C@H](C)[C@@H](C(C)C)O2)OC1=O [bafilomycin A1]
pIC50: > 8.95

From doi:10.1101/2021.11.15.468710v2 (biorxiv, 2021)
